# A melting point compilation (Tetko et al.; mined from patent text by program, amines drawn as free bases though some values may be those of a salt)
row,SMILES,melting point
1,CC(C)CN1CCCC[C@H]1CNc1nc(Oc2cccc3[nH]c(=O)c(N)nc23)cc(-c2ccc(C(F)(F)F)cc2)n1,228 °C
2,O=[N+]([O-])c1ccc(C2NCCc3c2[nH]c2ccccc32)cc1 (centres undefined),190 °C
3,CC(C)C[C@H](NS(=O)(=O)c1cccc2ccccc12)C(=O)N[C@H]1CCCOC1O (some centres undefined),159 to 161 °C
4,CC(=O)Nc1cc(F)ccc1C(=O)NCCN1CCC(n2c(=O)[nH]c3ccccc32)CC1,210 °C
5,C=CCSCC(N)C(=O)O (centres undefined),212 to 213 °C
6,Cc1ccccc1NC(=O)CN1C[C@@H](C)N(S(=O)(=O)c2cccc(C#N)c2)[C@@H](C)C1,152 to 153 °C
7,CN1C(=O)C2C3CCC(C3)C2(c2cccc(Br)c2)C1=O (centres undefined),105 to 107 °C
8,O=C(O)CCN1CCN(C2=Nc3ccccc3Sc3ccc(Cl)cc32)CC1,120 to 121 °C
9,CC(=O)CSC1C2=C(CCCC2)C(=O)N1c1ccc(Cl)cc1F (centres undefined),131 to 132 °C
10,Cc1ccc(NS(=O)(=O)c2ccccc2)cc1,118 to 119 °C
11,O=C1CC2(CCCC2)CC(=O)N1CCCCOc1cccc2c1SCCC2,69 °C
12,CC(C)(C)OC(=O)N1CC=C(c2ccc(N)c([N+](=O)[O-])c2)CC1,111 to 112 °C
13,O=c1[nH]c2cc(Cl)ccc2n1C1CCN(Cc2ccnc(-c3ccc(Cl)cc3)c2)CC1,186 to 188 °C
14,Cn1ccc(C(=O)c2ccc(O)c(Cl)c2Cl)n1,220 to 222 °C
15,CON=Cc1cc(N2C(=O)C3=C(CCCC3)C2=O)c(Cl)cc1Cl,122 to 124 °C
16,Fc1ccc(-c2cccc(-c3cn([C@H]4CN5CCC4CC5)nn3)c2)cn1,164 °C
17,O=C1C(=Cc2ccccc2)CCCC1c1ccccc1 (centres undefined),75 to 78 °C
18,CCCCCCSc1nn2c(=O)c(Cl)c(F)nc2s1,105 to 111 °C
19,OC1(Cn2cncn2)C(=Cc2ccc(Cl)cc2)CCCC1C1CCCCC1 (centres undefined),144 °C
20,c1ccc(P(c2ccccc2)c2c3ccccc3cc3ccccc23)cc1,204 °C
21,CN1CCN(c2ccc(-c3cnc4[nH]cc(C(=O)C5(C)CCCCC5)c4n3)cc2)CC1,225 to 226 °C

row,SMILES,melting point
1,CC(C)c1[nH]nc2c1C(=O)c1c(NC(=O)CN3CCC(CN)CC3)cccc1-2,218 to 220 °C
2,Nc1cccc2c1CCN(C(=O)C(F)(F)F)CC2,85 to 88 °C
3,OC(COc1ccn(-c2ccc(Cl)c(Cl)c2)n1)CN1CCOCC1 (centres undefined),158 to 161 °C
4,CC(C)C1(C)CCNC1=O (centres undefined),88 to 90 °C
5,CS(=O)(=O)Nc1cc(C(O)CNCCCCCCOCC/C=C/c2ccc(F)cc2)ccc1O (centres undefined),79 to 80 °C
6,N#CNC(=NCCN1CCC(C(=O)c2ccc(F)cc2)CC1)Oc1ccccc1,134 to 136 °C
7,CC1(C)CC(=O)Nc2c(Br)cc3c(c21)OC(CBr)C3 (centres undefined),237 to 239 °C
8,S=C=Nc1cccc2ccoc12,45 to 46 °C
9,CN(Cc1ccccc1)c1ncnc2c(N3CCOCC3)nc(N3CCC(N(C)C)CC3)nc12,98 °C
10,NS(=O)(=O)c1cc2ccc(=O)[nH]c2s1,306 to 308 °C
11,CN(Cc1ccc(NC(=O)C2=Cc3cc(-c4ccc(Cl)s4)ccc3S(=O)(=O)CC2)cc1)C1CCOCC1,221 to 222 °C
12,CC(=O)NC[C@H]1CN(c2ccc(-n3nccc3-c3ccccn3)c(F)c2)C(=O)O1,79.9 to 82.1 °C
13,C[C@@H](O)Cn1ccc2cc(F)c(F)cc21,114 to 116 °C
14,CC(C)(C)NC(=O)[C@@H]1CCCN1C(=O)[C@@H](O)[C@H](Cc1ccccc1)NC(=O)[C@H](CC(N)=O)NC(=O)COc1ccc(NC(=O)CN2CCOCC2)cc1,121 to 127 °C
15,CC(C)(C)C(=O)C(C(CC#N)c1ccccc1)n1ccnc1 (centres undefined),108 to 111 °C
16,CC12CCC(=O)C([N+](=O)[O-])=C1CCC1C2CCC2(C)C(OC3CC3)CCC12 (centres undefined),133 to 134 °C
17,N#CC1CN1C(=O)NC(=O)c1ccco1 (centres undefined),148 to 150 °C
18,Nc1nc(N)c2ncn(COC(CO)CO)c2n1,176 to 177 °C
19,Cc1cccc(-c2sc(N)nc2-c2ccnc(-c3ccc(N4CCOCC4)cc3)c2)n1,246 °C
20,O=C(Nc1ccc(-n2nc(C(F)(F)F)cc2C(F)(F)F)c(C(F)(F)F)c1)c1ccc(Cl)cc1,65 to 67 °C

# The remaining lines, values ahead:
row,melting point,SMILES
1,222 °C,C#CCn1c(=O)c2c(nc(C#Cc3ccc(OC)c(OC)c3)n2C)n(CC)c1=O
2,151 to 152 °C,CC(C)c1cccc2c1O[C@@H](C(C)C)C(=O)N2
3,138 to 139 °C,COc1ccc(C(=O)c2ccc(Cl)nc2)c(O)c1
4,127 to 129 °C,COC(=O)c1sc(-c2ccc(C)cc2)cc1NC(C)=O
5,78 to 80 °C,Cc1c(CCOCCO[N+](=O)[O-])cc(-c2ccc(S(C)(=O)=O)cc2)n1-c1ccccc1
6,170 to 172 °C,Cc1nc(-n2ccccc2=O)sc1C(=O)NCc1ccc(F)cc1
7,129 to 130 °C,COc1ccc(CCNC(=O)C(F)(F)F)cc1NS(C)(=O)=O
8,104 °C,CNC(=O)c1cc(-c2ccc(OC)cc2)nn(CC=C(C)C)c1=O
9,121 to 128 °C,COc1cccc(S(=O)(=O)N(C)C)c1C#N
10,158 to 160 °C,COc1ccc(COC(=O)CC(=O)Oc2ccc3sc4nc(-c5ccc(OC)cc5)cn4c3c2)cc1
11,127 to 128 °C,CCCOc1ccccc1-c1ccc(C#N)c(=S)[nH]1
12,160 °C,Cc1cc(-c2ccc(C(F)(F)F)cc2)cc(-c2cccc(-c3ccnc(N)c3)n2)n1
13,133 to 134 °C,COCCN(C)c1nnc(-c2ccc(-c3ccccc3)nc2)n1-c1cccc2nonc12
14,129 to 130 °C,CCCN(c1ncncc1C#N)n1ccc2ccccc21
15,166 to 169 °C,CCOC(=O)c1cnc2c(c(C)nn2-c2ccccn2)c1O
16,250 to 251 °C,COc1ccc(C(=O)Nc2ccccc2)cc1NS(=O)(=O)c1ccc(NC(C)=O)cc1
17,160 to 164 °C,CCCc1c(OCCCOc2cccc3c2CCCC3)ccc2c1OC(CCC(=O)O)(CCC(=O)N1CCCC1)CC2=O (centres undefined)
18,154 to 155 °C,COCC(=O)Nc1c(C(=O)c2cccc(Cl)c2)[nH]c2cc(Cl)ccc12
19,233 to 235 °C,O=c1[nH]c2cccnc2n1-c1ccccc1
20,76 to 80 °C,COC(=O)CN(C)C(=O)CC(Cc1cccc2ccccc12)C(=O)NC(Cc1c[nH]cn1)C(=O)NC(CC(C)C)C(O)C(=O)OC(C)C (mixture of isomers)

row,melting point,SMILES
1,38.4 °C,CCOc1cc(C)c(CCc2ccc(OC)c(OC)c2)cc1OC
2,168 to 170 °C,CC(=O)N1C(=O)C(C(=O)c2cccs2)c2cc(Cl)ccc21 (centres undefined)
3,197 to 198 °C,CCOCCCN(C)Cc1ccc(NC(=O)C2=Cc3cc(-c4ccc(OCC)cc4)ccc3S(=O)(=O)CC2)cc1
4,101 to 103 °C,CCN(CC)C(=O)COc1ccc(C(=O)CBr)cc1OC
5,140 to 144 °C,Cc1nc(C)c(Cl)c(NCc2nccc(OCCCCN3CCNCC3)c2C)n1
6,187 to 188 °C,Cc1ccn(-c2ccc(S(N)(=O)=O)cc2)c1-c1ccc(F)cc1
7,50 °C,COCCOCOc1c(Cl)cc(C=O)c(Cl)c1OCOCCOC
8,65 to 67 °C,CCOC(=O)C1=C(C)NC(SCc2ccc(OC)cc2)=NC1c1cccc(C)c1 (centres undefined)
9,102 to 103 °C,CC(C)(Cc1cc2ccccc2[nH]1)[N+](=O)[O-]
10,172 °C,CCN(CC)CCOc1ccc(Nc2ncc3c(n2)N(C)C(=O)N(c2ccc(Cl)cc2Cl)C3)cc1
11,90 °C,CCN1CCN(C(=O)c2ccc(-c3cc(C(=O)Cc4cccc(C)n4)ccn3)cc2)CC1
12,172 to 174 °C,CC(C)n1nc(-c2sc(NC(=O)c3ccc(CN(C)CCc4ccccn4)cc3)nc2-c2ccccc2)ccc1=O
13,220 to 226 °C,N#Cc1cnc2c(=O)c3ccccc3oc2c1
14,104 to 105 °C,COC(CNC1=Nc2ccc(Cl)cc2C(c2ccccc2)N1C)OC (centres undefined)
15,81 to 82 °C,CCOC(=O)CCc1cn(CCc2ccc(OCc3nc(-c4ccccc4)oc3C)cc2)nc1-c1ccccc1
16,161 to 162 °C,C[C@H]1CCCN(C(=O)Cc2ccc(Cl)c(Cl)c2)[C@H]1CO (relative stereo)
17,162 °C,CCCC1=C(C(=O)OCC)C(c2cc(Cl)ccc2Cl)c2c[nH]nc2N1 (centres undefined)
18,106 °C,CCOC(=O)C(C(=O)N(C)C)=C(OC(=O)c1ccccc1)c1ccc(Cl)cc1Cl
19,> 290 °C,COc1cccc2c(O)c(C)c(C)nc12
20,116 °C,CCCCCCCCCCCCSC(CCC)C(=O)Nc1cc(C)c(O)c(C)c1C (centres undefined)

row,melting point,SMILES
1,213 to 220 °C,CN1CCC(CNc2ncc3cc(-c4ccccc4Cl)c(=O)[nH]c3n2)CC1
2,201 to 202 °C,O=C1COc2cccc3nc4c(c(c23)N1)CCCC4
3,92 to 93 °C,Cc1c(CCl)sc2cc(Br)ccc12
4,116 to 120 °C,CCCN(CCC)CCOc1ccc(NC(=O)c2c(OC)cccc2OC)cc1
5,146 to 148 °C,CCCc1c(OCCCOc2ccc(C(=O)O)cc2Cl)ccc(C(C)=O)c1OC(C)=O
6,111 to 113 °C,Cc1cn(C)cc(-c2ccccc2)c1=O
7,228 to 230 °C,CCOC(=O)c1nnc(N2CCN(c3ccc(N4CC(CNC(C)=O)OC4=O)cc3)CC2F)s1 (centres undefined)
8,> 120 °C,CCCCc1nc(CO)c(C(=O)N2CCC[C@H]2C(=O)OC)n1Cc1ccc(-c2ccccc2C(=O)O)cc1
9,163 °C,CCCCCCCc1ccc(-c2ccc(C(=O)O)cc2)cc1
10,187 °C,Cc1nc(NCc2ccccc2)[nH]c(=O)c1CCO
11,228 to 229 °C,CCOCc1nc2c(N)nc3cc(-c4cccnc4)ccc3c2n1Cc1ccc(CNS(C)(=O)=O)cc1
12,187 to 199 °C,CCNC(=O)c1ccc(N2CCN(Cc3cc4c(c(OCC)c3)OC(C)C(=O)N4)CC2)c(Cl)c1 (centres undefined)
13,202 to 204 °C,CC(=O)Nc1nc(-c2ccccc2)c(-c2ccc(=O)n(C(C)C)n2)s1
14,> 250 °C,O=C1N(CC2CCCO2)c2ccccc2C12COc1c[nH]c(=O)cc12 (centres undefined)
15,100 to 102 °C,CC(c1ccc(-c2ccccc2)c(F)c1)c1nc(CC(=O)O)no1 (centres undefined)
16,220 to 222 °C,COc1ccc2cc(C(=O)O)ccc2n1
17,167 to 168 °C,COc1nc2oc(-c3ccccc3)nc2cc1C
18,105 to 106 °C,CCOC(=O)c1cccn2c(C(=O)OCC)c(Cl)nc12
